Test results from patent publication US20240358692A1, “TREATMENT OF SCLERODERMA” (Aisa Pharma, Inc., priority 2023, published 2024).

System: participants with SSc-RP
Assay: SHAQ - Visual Analog Scale - Overall Disease Severity
Type: in vivo, human
From the text: The standard, validated, patient reported outcome measures tool for SSc patients, the Scleroderma Health Assessment Questionnaire (SHAQ), will be used to assess the participant qualify of life. Details are attached in the Appendix. The participant quality of life will be scored, and a disability index calculated for each questionnaire completed by the patient at Screening and each in-clinic visit. The absolute change in participant quality of life from baseline to the end of each dosing period will be calculated similar to frequency data as before.
The standard, validated, patient reported outcome measures tool for SSc patients, the SHAQ, was collected at the time points specified in the study schedules (FIG. 2 and FIGS. 4A and 4B) to assess the participant's quality of life. The SHAQ included a Raynaud's VAS that will also be reported separately.

[1] = Sensitivity Analysis (diagnosis of SSc), Modified ITT, Part A, Day 12, arms Cilnidipine 10 mg, Tadalafil 5 mg, Cilnidipine 10 mg + Tadalafil 5 mg
[2] = cilnidipine 10 mg (combination: + tadalafil 5 mg)
[3] = cilnidipine 20 mg (combination: + tadalafil 5 mg)

Q: For COCCOC(=O)C1=C(C)NC(C)=C(C(=O)OC/C=C/c2ccccc2)C1c1cccc([N+](=O)[O-])c1 (centres unmarked) [Cilnidipine], which “% change overall SSc Disease Severity” value (Pooled Cilnidipine (n = 7), SHAQ, mITT Part A) is on record?
A: −60% (i.e.,

Q: What about the “SHAQ VAS Overall Disease Severity, Change from Baseline, Max” value (Pooled Cilnidipine, PP, Part A) of the same compound?
A: 0.20

Q: And the “SHAQ VAS Overall Disease Severity, Change from Baseline, Mean (SD)” value (Pooled Cilnidipine, PP, Part A)?
A: −1.450 (0.9928)

Q: And the “SHAQ VAS Overall Disease Severity, Change from Baseline, Median” value (Pooled Cilnidipine, PP, Part A)?
A: −1.550

Q: What about the “SHAQ VAS Overall Disease Severity, Change from Baseline, Min” value (Pooled Cilnidipine, PP, Part A) of the same compound?
A: −3.10

Q: What about the “SHAQ VAS Overall Disease Severity, Change from Baseline, Q1” value (Pooled Cilnidipine, PP, Part A) of the same compound?
A: −1.850

Q: And the “SHAQ VAS Overall Disease Severity, Change from Baseline, Q3” value (Pooled Cilnidipine, PP, Part A)?
A: −0.950

Q: What about the “SHAQ VAS Overall Disease Severity, Day 12, Max” value (Pooled Cilnidipine, PP, Part A) of the same compound?
A: 5.20

Q: What about the “SHAQ VAS Overall Disease Severity, Day 12, Median” value (Pooled Cilnidipine, PP, Part A) of the same compound?
A: 1.300

Q: And the “SHAQ VAS Overall Disease Severity, Day 12, Min” value (Pooled Cilnidipine, PP, Part A)?
A: 0.00

Q: What about the “SHAQ VAS Overall Disease Severity, Day 12, Q1” value (Pooled Cilnidipine, PP, Part A) of the same compound?
A: 0.350

Q: And the “SHAQ VAS Overall Disease Severity, Day 12, Q3” value (Pooled Cilnidipine, PP, Part A)?
A: 1.650

Q: And the “SHAQ VAS Overall Disease Severity, Percent Change from Baseline, Max” value (Pooled Cilnidipine, PP, Part A)?
A: −26.8

Q: What about the “SHAQ VAS Overall Disease Severity, Percent Change from Baseline, Mean (SD)” value (Pooled Cilnidipine, PP, Part A) of the same compound?
A: −61.10 (23.658)

Q: What about the “SHAQ VAS Overall Disease Severity, Percent Change from Baseline, Median” value (Pooled Cilnidipine, PP, Part A) of the same compound?
A: −60.00

Q: What about the “SHAQ VAS Overall Disease Severity, Percent Change from Baseline, Min” value (Pooled Cilnidipine, PP, Part A) of the same compound?
A: −100.0

Q: What about the “SHAQ VAS Overall Disease Severity, Percent Change from Baseline, Q1” value (Pooled Cilnidipine, PP, Part A) of the same compound?
A: −76.19

Q: And the “SHAQ Visual Analogue Scale - Overall Disease Severity: Change from Baseline, Median” value [1]?
A: −1.500

Q: And the “SHAQ Visual Analogue Scale - Overall Disease Severity: In-Clinic Visit (Day 12), Median” value [1]?
A: 1.900

Q: What about the “SHAQ Visual Analogue Scale - Overall Disease Severity: In-Clinic Visit (Day 12), Median” value (Sensitivity Analysis (diagnosis of SSc), Modified ITT, Part A, Day 12, arms Cilnidipine 20 mg, Cilnidipine 20 mg + Tadalafil 5 mg) of the same compound?
A: 1.200

Q: What about the “VAS Overall Severity Change from Baseline Max” value [2] of the same compound?
A: 0.20

Q: What about the “VAS Overall Severity Change from Baseline Mean” value [2] of the same compound?
A: −0.900

Q: And the “VAS Overall Severity Change from Baseline Median” value [2]?
A: −0.950

Q: What about the “VAS Overall Severity Change from Baseline Min” value [2] of the same compound?
A: −1.90

Q: What about the “VAS Overall Severity Change from Baseline Q1” value [2] of the same compound?
A: −1.700

Q: And the “VAS Overall Severity Change from Baseline Q3” value [2]?
A: −0.100

Q: What about the “VAS Overall Severity Day 12 Max” value [2] of the same compound?
A: 5.20

Q: What about the “VAS Overall Severity Day 12 Min” value [2] of the same compound?
A: 0.00

Q: And the “VAS Overall Severity Day 12 Q1” value [2]?
A: 0.100

Q: And the “VAS Overall Severity Day 12 Q3” value [2]?
A: 3.550

Q: And the “VAS Overall Severity Percent Change from Baseline Max” value [2]?
A: −26.8%

Q: And the “VAS Overall Severity Percent Change from Baseline Mean” value [2]?
A: −56.96%

Q: And the “VAS Overall Severity Percent Change from Baseline Median” value [2]?
A: −44.12%

Q: What about the “VAS Overall Severity Percent Change from Baseline Min” value [2] of the same compound?
A: −100.0%

Q: And the “VAS Overall Severity Percent Change from Baseline Q1” value [2]?
A: −100.00%

Q: What about the “VAS Overall Severity Percent Change from Baseline Q3” value [2] of the same compound?
A: −26.76%

Q: What about the “VAS Overall Severity Change from Baseline Max” value [3] of the same compound?
A: −1.50

Q: What about the “VAS Overall Severity Change from Baseline Mean” value [3] of the same compound?
A: −1.633,

Q: And the “VAS Overall Severity Change from Baseline Median” value [3]?
A: −1.600

Q: And the “VAS Overall Severity Change from Baseline Min” value [3]?
A: −1.80

Q: What about the “VAS Overall Severity Change from Baseline Q1” value [3] of the same compound?
A: −1.800

Q: What about the “VAS Overall Severity Change from Baseline Q3” value [3] of the same compound?
A: −1.500

Q: And the “VAS Overall Severity Day 12 Max” value [3]?
A: 1.40

Q: What about the “VAS Overall Severity Day 12 Median” value [3] of the same compound?
A: 1.200

Q: What about the “VAS Overall Severity Day 12 Min” value [3] of the same compound?
A: 0.50

Q: What about the “VAS Overall Severity Day 12 Q1” value [3] of the same compound?
A: 0.500

Q: What about the “VAS Overall Severity Day 12 Q3” value [3] of the same compound?
A: 1.400

Q: What about the “VAS Overall Severity Percent Change from Baseline Max” value [3] of the same compound?
A: −51.7%

Q: And the “VAS Overall Severity Percent Change from Baseline Mean” value [3]?
A: −62.64%

Q: And the “VAS Overall Severity Percent Change from Baseline Median” value [3]?
A: −60.00%

Q: And the “VAS Overall Severity Percent Change from Baseline Min” value [3]?
A: −76.2%

Q: What about the “VAS Overall Severity Percent Change from Baseline Q1” value [3] of the same compound?
A: −76.19%

Q: What about the “VAS Overall Severity Percent Change from Baseline Q3” value [3] of the same compound?
A: −51.72%
